Data reported in ChEMBL document CHEMBL6120940, “Discovery of N-Aryl-N'-[4-(aryloxy)cyclohexyl]squaramide-Based Inhibitors of LXR/SREBP-1c Signaling Pathway Ameliorating Steatotic Liver Disease: Navigating the Role of SIRT6 Activation” (J Med Chem, 2024).

How the values were obtained:
CYP3A4 = CYP3A4 (Homo sapiens, UniProt P08684); test: Inhibition of CYP3A4 in human liver microsomes at 10 uM using midazolam as substrate preincubated for 5 mins followed by NADPH generating system addition and measured after 15 mins relative to control; format: ADME, Microsome; details: probe midazolam, time 20 min
CYP2D6 = CYP2D6 (Homo sapiens, UniProt P10635); test: Inhibition of CYP2D6 in human liver microsomes at 10 uM using dextromethorphan as substrate preincubated for 5 mins followed by NADPH generating system addition and measured after 15 mins relative to control; format: ADME, Microsome; details: probe dextromethorphan, time 20 min
[1] = Metabolic stability in rat liver microsomes at 1 uM measured after 30 mins in presence of NADPH regeneration system by LC-MS/MS analysis; format: ADME, Microsome; details: read-out: Stability
[2] = Stability in human plasma measured after 120 mins by LC-MS/MS analysis; format: ADME, cell-free; details: read-out: Stability
[3] = biological target: Voltage-gated inwardly rectifying potassium channel KCNH2 (Homo sapiens, UniProt Q12809); test: Inhibition of human ERG expressing HEK cells by whole-cell patch clamp assay; format: toxicity, cell-based
CYP2C9 = CYP2C9 (Homo sapiens, UniProt P11712); test: Inhibition of CYP2C9 in human liver microsomes at 10 uM using diclofenac as substrate preincubated for 5 mins followed by NADPH generating system addition and measured after 15 mins relative to control; format: ADME, Microsome; details: probe diclofenac, time 20 min
CYP1A2 = biological target: T1, CYP1A2 (Homo sapiens, UniProt P05177); test: Inhibition of CYP1A2 in human liver microsomes at 10 uM using phenacetin as substrate preincubated for 5 mins followed by NADPH generating system addition and measured after 15 mins relative to control; format: ADME, Microsome; details: probe phenacetin, time 20 min
T1 sequence (P05177 whole entry): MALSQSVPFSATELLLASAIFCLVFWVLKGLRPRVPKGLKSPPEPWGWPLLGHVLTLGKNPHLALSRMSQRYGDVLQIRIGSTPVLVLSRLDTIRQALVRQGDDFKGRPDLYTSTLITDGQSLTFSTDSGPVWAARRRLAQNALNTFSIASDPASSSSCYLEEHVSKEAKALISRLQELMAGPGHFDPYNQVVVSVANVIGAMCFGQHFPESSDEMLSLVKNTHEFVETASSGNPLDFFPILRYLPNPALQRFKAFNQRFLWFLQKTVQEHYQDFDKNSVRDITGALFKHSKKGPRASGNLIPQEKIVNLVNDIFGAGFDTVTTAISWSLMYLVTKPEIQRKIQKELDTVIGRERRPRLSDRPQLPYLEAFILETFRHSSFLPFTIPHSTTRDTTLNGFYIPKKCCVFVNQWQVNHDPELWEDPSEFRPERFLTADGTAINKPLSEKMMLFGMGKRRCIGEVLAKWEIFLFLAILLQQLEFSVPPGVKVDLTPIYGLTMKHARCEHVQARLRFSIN

[4] = Stability in mouse plasma measured after 120 mins by LC-MS/MS analysis; format: ADME, cell-free; details: read-out: Stability
[5] = Metabolic stability in mouse liver microsomes at 1 uM measured after 30 mins in presence of NADPH regeneration system by LC-MS/MS analysis; format: ADME, Microsome; details: read-out: Stability
[6] = biological target: T2, Sterol regulatory element-binding protein 1 (Homo sapiens) (UniProt P36956); test: Inhibition of SREBP-1c transcriptional activity in human HepG2 cells expressing LXRalpha/RXRalpha assessed as reduction in SRE-luciferase level at 10 uM pretreated with compound for 30 mins followed by T0901317 addition and measured after 12 hrs by Dual-Glo luciferase assay relative to control; format: cell-based; details: time 12.5 hrs
T2 sequence (whole entry): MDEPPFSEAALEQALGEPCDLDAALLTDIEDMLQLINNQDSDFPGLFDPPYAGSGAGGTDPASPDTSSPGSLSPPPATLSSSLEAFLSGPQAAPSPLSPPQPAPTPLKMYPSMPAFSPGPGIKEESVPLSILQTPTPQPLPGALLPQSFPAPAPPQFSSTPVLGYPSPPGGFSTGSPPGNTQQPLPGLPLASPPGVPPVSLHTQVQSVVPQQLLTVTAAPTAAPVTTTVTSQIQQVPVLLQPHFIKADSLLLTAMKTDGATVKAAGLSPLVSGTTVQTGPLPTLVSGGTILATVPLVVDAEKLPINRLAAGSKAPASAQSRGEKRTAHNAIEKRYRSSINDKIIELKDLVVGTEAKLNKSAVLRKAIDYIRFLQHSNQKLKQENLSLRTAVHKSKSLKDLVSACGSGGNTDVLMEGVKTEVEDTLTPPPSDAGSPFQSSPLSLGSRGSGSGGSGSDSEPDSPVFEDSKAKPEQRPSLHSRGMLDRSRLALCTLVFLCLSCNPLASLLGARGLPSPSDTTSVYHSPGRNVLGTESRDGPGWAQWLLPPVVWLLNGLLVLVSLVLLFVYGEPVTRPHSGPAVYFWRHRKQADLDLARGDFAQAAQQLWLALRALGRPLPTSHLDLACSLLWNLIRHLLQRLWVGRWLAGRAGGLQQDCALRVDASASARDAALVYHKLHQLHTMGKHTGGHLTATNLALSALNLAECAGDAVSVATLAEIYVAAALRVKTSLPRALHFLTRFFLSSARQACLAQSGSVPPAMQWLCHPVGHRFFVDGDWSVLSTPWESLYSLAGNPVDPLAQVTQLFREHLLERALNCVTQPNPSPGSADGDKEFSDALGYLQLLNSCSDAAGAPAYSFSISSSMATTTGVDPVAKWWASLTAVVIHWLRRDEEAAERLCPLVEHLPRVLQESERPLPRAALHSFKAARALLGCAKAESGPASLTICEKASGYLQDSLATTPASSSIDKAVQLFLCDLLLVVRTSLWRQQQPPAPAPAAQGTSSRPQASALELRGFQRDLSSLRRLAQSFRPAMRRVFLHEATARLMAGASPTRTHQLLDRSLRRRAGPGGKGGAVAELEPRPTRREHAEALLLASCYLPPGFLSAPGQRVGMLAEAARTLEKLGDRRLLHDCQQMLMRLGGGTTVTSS

[7] = Downregulation of SREBP-1c mRNA expression in human HepG2 cells at 10 uM pretreated with compound for 30 mins followed by T0901317 addition and measured after 12 hrs by RT-qPCR analysis relative to control; format: functional; details: time 12.5 hrs
[8] = Metabolic stability in human liver microsomes at 1 uM measured after 30 mins in presence of NADPH regeneration system by LC-MS/MS analysis; format: ADME, Microsome; details: read-out: Stability
[9] = Stability in rat plasma measured after 120 mins by LC-MS/MS analysis; format: ADME, cell-free; details: read-out: Stability
CYP2C19 = CYP2C19 (Homo sapiens, UniProt P33261); test: Inhibition of CYP2C19 in human liver microsomes at 10 uM using S-mephenytoin as substrate preincubated for 5 mins followed by NADPH generating system addition and measured after 15 mins relative to control; format: ADME, Microsome; details: probe S-mephenytoin, time 20 min
Sequence of CYP2C19 (P33261 whole entry): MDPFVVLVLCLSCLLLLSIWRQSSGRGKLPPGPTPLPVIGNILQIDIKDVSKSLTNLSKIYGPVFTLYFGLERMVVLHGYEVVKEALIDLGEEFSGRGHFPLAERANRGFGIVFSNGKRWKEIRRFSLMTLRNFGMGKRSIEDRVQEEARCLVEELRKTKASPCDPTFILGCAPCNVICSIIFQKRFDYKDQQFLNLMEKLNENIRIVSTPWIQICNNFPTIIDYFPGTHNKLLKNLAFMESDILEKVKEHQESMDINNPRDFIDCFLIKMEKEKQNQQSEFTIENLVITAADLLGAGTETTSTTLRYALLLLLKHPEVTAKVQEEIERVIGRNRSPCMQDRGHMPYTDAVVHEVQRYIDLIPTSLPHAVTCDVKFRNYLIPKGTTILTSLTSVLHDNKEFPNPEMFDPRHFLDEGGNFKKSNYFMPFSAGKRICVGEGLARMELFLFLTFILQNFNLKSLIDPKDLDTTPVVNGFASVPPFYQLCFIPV

Sequence of CYP2C9 (P11712 whole entry): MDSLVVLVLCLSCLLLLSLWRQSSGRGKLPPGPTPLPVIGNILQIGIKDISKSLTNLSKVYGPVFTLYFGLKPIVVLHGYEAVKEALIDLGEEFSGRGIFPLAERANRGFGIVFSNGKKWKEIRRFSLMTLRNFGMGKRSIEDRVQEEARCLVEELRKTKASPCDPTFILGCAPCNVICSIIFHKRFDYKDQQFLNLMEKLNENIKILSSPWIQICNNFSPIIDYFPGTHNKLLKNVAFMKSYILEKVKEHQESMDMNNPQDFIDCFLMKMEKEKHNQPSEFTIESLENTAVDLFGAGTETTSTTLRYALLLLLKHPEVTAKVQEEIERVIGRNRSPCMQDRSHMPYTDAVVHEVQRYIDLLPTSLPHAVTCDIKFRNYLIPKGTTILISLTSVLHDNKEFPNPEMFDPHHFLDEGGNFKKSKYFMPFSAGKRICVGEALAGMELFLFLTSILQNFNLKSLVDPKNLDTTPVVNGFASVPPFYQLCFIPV
Sequence of Voltage-gated inwardly rectifying potassium channel KCNH2 (Q12809 whole entry): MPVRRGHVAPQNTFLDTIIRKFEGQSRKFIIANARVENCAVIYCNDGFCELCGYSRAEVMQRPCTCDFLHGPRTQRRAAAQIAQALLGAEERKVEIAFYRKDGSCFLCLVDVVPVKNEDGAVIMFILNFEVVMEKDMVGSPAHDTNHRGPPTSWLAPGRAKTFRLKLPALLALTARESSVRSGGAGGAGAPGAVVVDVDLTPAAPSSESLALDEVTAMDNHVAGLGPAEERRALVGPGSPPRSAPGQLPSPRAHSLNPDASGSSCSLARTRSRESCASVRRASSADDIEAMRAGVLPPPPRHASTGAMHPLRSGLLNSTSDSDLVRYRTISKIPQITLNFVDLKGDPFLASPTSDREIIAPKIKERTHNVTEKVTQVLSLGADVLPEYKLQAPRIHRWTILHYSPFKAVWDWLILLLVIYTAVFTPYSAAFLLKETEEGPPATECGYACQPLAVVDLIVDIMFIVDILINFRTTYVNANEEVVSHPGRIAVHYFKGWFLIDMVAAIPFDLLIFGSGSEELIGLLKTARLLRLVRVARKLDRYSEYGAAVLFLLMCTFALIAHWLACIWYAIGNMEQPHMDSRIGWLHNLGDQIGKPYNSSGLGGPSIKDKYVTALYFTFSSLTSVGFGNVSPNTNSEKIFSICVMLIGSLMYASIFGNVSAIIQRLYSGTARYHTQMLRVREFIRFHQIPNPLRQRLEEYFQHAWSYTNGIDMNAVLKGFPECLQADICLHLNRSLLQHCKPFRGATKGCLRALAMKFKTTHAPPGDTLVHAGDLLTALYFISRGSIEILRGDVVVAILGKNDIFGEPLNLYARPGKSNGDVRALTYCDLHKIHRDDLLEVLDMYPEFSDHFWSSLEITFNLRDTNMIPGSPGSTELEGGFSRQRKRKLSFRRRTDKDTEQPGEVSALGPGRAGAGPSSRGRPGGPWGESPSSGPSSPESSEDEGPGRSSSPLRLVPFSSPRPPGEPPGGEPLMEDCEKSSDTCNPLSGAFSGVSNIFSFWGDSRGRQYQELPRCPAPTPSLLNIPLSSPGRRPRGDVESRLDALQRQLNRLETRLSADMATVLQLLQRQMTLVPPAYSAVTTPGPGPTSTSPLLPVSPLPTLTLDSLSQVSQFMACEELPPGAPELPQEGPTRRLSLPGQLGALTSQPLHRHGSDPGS
Sequence of CYP2D6 (P10635 whole entry): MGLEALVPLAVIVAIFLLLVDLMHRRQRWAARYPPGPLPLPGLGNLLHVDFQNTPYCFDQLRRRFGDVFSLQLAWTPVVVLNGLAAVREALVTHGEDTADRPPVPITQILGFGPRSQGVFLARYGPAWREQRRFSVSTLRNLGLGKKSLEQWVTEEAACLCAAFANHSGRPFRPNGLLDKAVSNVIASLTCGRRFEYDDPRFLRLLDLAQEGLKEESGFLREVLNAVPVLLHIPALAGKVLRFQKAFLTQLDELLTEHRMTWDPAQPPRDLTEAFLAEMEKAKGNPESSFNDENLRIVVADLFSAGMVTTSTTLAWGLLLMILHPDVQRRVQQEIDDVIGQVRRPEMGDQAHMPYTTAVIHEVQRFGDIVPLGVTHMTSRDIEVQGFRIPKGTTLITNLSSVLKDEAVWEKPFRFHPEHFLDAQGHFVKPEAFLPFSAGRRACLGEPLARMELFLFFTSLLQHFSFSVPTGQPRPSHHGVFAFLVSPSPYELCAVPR
Sequence of CYP3A4 (P08684 whole entry): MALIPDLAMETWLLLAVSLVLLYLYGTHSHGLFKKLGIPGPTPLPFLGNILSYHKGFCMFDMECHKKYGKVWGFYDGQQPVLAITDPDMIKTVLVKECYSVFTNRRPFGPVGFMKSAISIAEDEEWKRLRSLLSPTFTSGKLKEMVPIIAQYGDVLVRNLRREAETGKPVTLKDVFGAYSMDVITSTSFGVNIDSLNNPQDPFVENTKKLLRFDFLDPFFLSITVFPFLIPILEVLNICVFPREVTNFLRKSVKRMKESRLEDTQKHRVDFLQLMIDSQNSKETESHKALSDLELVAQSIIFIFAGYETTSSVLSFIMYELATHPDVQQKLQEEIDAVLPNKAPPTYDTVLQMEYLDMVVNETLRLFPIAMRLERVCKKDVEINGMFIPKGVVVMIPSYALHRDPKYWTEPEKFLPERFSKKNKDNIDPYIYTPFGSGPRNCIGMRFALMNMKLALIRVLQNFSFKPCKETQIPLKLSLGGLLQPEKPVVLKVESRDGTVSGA

`COc1ccccc1Nc1c(N[C@H]2CC[C@H](Oc3ccc(C#N)cc3)CC2)c(=O)c1=O` showed an inhibition at 0.25 h, 10 µM (CYP3A4) of 84%, an inhibition at 0.25 h, 10 µM (CYP2D6) of 86.2% and a remaining at 0.5 h, 1 µM [1] of 26.5%. The remaining at 2 h [2] was 96.3%, the IC50 [3] was 493 nM and the inhibition at 0.25 h, 10 µM (CYP2C9) was 56.9%. For the same molecule, the inhibition at 0.25 h, 10 µM (CYP1A2) was > 100%, the remaining at 2 h [4] was > 100% and the remaining at 0.5 h, 1 µM [5] was 31%. It also gave an inhibition [6] of 32.6%, an Activity [7] of 7.4% and a remaining at 0.5 h, 1 µM [8] of 15.5%. The remaining at 2 h [9] was 93.1% and the inhibition at 0.25 h, 10 µM (CYP2C19) was 38.9%.
